Measurements published in patent US20200352889A1, “CYSTATHIONINE COMPOSITIONS AND METHODS OF TREATMENT FOR HEALTH CONDITIONS” (THE REGENTS OF THE UNIVERSITY OF COLORADO, A BODY CORPORATE, priority 2011, published 2020).
Entries after “also recorded” stand apart in the source; their conditions may differ.

Assays:
[1] = system: C57BL/6 WT mice treated with tunicamycin; test: Tunicamycin-induced hepatic and renal damage in WT mice in the presence and absence of PPG; assay type: in vivo, mouse
From the text: In order to investigate the effects of elevated cystathionine upon the response to ER stress, wild type mice (n=6) were exposed to a single sub-lethal intraperitoneal injection of tunicamycin in the presence and absence of the CGL inactivating compound PPG. WT mice were randomly assigned to one of four treatment groups (n=6 for each group): 1) control, IP injected with PBS; 2) I.P. injection with PPG; 3) single I.P […] tunicamycin and 4) tunicamycin+PPG. In groups 2 and 4, PPG treatment was maintained by daily injection until sacrifice at three days post vehicle/tunicamycin injection. After the completion of this treatment regime, all mice were anaesthetized (isoflourane/oxygen) and sacrificed by decapitation, and blood samples were collected for plasma analysis. Livers and kidneys were removed, weighed and then samples were either immersion-fixed overnight in 4% paraformaldehyde in PBS (pH 7.3) for subsequent histological analysis or were snap frozen in liquid nitrogen and examined for morphological, histological and biochemical analyses.
(§1) Propensity for hepatic steatosis was examined in HO and wild type control mice using a methionine-choline deficient amino acid defined and iron supplemented diet (#518810 Dyets Inc., Bethlehem, Pa.)) and an isocaloric amino acid defined Lombardi choline sufficient diet with methionine control diet (518754, Dyets Inc., Bethlehem, Pa.) for 19 days as described previously (7). Experimental hypercystathionemia was induced by IP injection of the CGL inactivator PPG (50 mg·day-1·kg-1) as described previously (8). ER stress was induced in mice by a single IP injection with tunicamycin at 0.5 mg/kg body weight (volume <=1.0 ml). Control mice were sham treated by injection with an equal volume of PBS (9,10).
Tissues were immersion-fixed overnight in 4% paraformaldehyde in PBS (pH 7.3). Paraffin embedded sections (5 μm) were stained for examination with hematoxylin and eosin (H and E). Cells undergoing apoptosis were identified by labeling their DNA 3′-OH nick ends using a variant of terminal deoxynucleotidyl transferase-mediated dUTP nick end-labeling (TUNEL) staining. Staining was performed according to the manufacturer's instruction with ApopTag® Peroxidase in Situ Apoptosis Detection Kit (Millipore, Billerica, Mass.). Tissue sections were deparaffinized with xylene and washed in succession with different concentrations of ethanol (absolute, 95% and 70%). Tissue sections were then digested with proteinase K (20 μg/ml) for 15 min. Endogenous peroxidase activity was quenched with 3% H2O2 in PBS for 5 min. The slides were immersed in terminal deoxynucleotidyl transferase (TdT) buffer containing digoxigenin-labeled nucleotides at 37° C. for 1 h. After washing, anti-digoxigenin-peroxidase was added to cover the slides and incubated in a humid chamber at room temperature for 30 min. After washing with PBS, the slides were stained with diaminobenzidine and then counterstained with 1% methyl green. Light microscopy was performed to quantify the apoptotic cells, by counting cells in ten randomly selected fields (×100 magnification) of each slide with the following formula: number of apoptotic cells/total number of cells counted×100.
A party unaware of the animal's genotype or treatment group performed both histological analysis, of stained slides and TUNEL staining. Liver injury was assessed by determining plasma levels of alanine aminotransferase (ALT) activity using an enzyme-coupled assay with lactic dehydrogenase (LDH) as described previously (12) Liver lipid was extracted using the procedure of Bligh and Dyer (13) and after evaporation of the organic solvent, the triacylglycerol content of each sample was measured in duplicate using an enzymatic method (Sigma-Aldrich).

[2] = biological target: T1, CGL (Mus musculus, UniProt Q8VCN5); test: Daily injection of PPG in WT mice, plasma cystathionine, Hcy, methionine and cysteine; assay type: in vivo
T1 construct: endogenous in cells; host or cells: C57BL/6J wild-type mice (whole animal, in vivo)
T1 sequence (Q8VCN5 whole entry): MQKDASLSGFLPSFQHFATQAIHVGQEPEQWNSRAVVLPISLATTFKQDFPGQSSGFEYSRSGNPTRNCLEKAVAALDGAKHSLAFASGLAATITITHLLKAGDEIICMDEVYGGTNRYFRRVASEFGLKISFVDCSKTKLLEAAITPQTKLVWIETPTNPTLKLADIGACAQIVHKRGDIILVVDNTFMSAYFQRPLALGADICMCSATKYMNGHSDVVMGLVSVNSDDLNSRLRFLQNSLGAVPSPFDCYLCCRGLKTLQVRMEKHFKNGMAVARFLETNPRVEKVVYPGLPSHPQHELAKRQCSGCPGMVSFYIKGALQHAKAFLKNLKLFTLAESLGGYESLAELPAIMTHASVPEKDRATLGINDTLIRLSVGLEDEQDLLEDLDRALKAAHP
Description: It is believed that the longevity of this cystathionine accumulation with repeated injections of PPG over time in mice has not been properly examined. Consequently, daily injections of PPG were given to WT mice (n=7) each morning over a period of 4 days. Plasma samples were taken from these mice in the evening of each day by non-lethal tail bleed and the levels of cystathionine, Hcy, methionine and cysteine were determined (FIG. 4). Inactivation of CGL was observed and was accompanied by a 56-fold increase in the plasma level of cystathionine on day 1. […] Cysteine levels subsequently returned to near normal levels as the effects of the PPG treatment diminished.
as §1
Determination of plasma levels of methionine cycle metabolites was performed as described previously (11).
Previous work by Abeles and Walsh synthesized and tested a range of acetylenic substrates capable of irreversible inactivation of CGL. […] For our purposes this method has the additional benefit of allowing us to investigate the possible protective effects of elevated cystathionine in isolation from its role as a cysteine donor. To our knowledge, the longevity of this cystathionine accumulation with repeated injections of PPG over time in mice has not been examined. Daily injections of PPG to WT mice were given (n=7) each morning over a period of 4 days. Plasma samples were taken from these mice in the evening of each day by non-lethal tail bleed and the levels of cystathionine, Hcy, methionine and cysteine were determined (FIG. 4). It was observed that inactivation of CGL was accompanied by a 56-fold increase in the plasma level of cystathionine on day 1. […] Cysteine levels subsequently returned to near normal levels as the effects of the PPG treatment diminished. These experiments allowed us to define an optimal time frame for examining the possible protective effects of PPG mediated cystathionine accumulation in WT mice. The effect of PPG on liver health was assessed by determining ALT values before PPG treatment and at each subsequent time point studied.

[3] = tunicamycin 0.5 mg/kg single IP + daily PPG, three days
[4] = daily PPG IP, declined back to normal as PPG efficacy diminished

C#CCC(N)C(=O)O (racemic) [PPG, D,L-2-amino-4-pentynoic acid]
apoptosis (Tunel staining) ([1]; PPG alone control group): No apoptosis was observed
morphological alteration (histology) ([1]; PPG alone control group): no significant morphological alteration
size and appearance of livers and kidneys ([1]; PPG alone control group): normal in size and appearance
liver weight vs control groups [1, 3]: did not differ significantly from the control groups
plasma ALT levels vs control groups [1, 3]: did not differ significantly from the control groups
triglyceride levels vs control groups [1, 3]: did not differ significantly from the control groups
gross appearance of livers and kidneys ([1]; tunicamycin + PPG, three days): appeared ostensibly normal; also recorded: this effect was not apparent
tunicamycin-induced morphological changes in liver and kidney (H and E histology) ([1]; tunicamycin + PPG, three days): effectively ablated; also recorded: significantly attenuated
apoptotic cells in kidney (Tunel staining) ([1]; tunicamycin treated mice pretreated with PPG): No apoptotic cells were observed
increase in the plasma level of cystathionine ([2]; daily PPG IP 50 mg/kg/day, day 1, vs untreated animals): 56 fold
increase in the plasma level of cystathionine ([2]; daily PPG IP, day 3): 30 fold
increase in the plasma level of cystathionine ([2]; daily PPG IP, day 4, vs untreated animals): 8 fold
plasma methionine [2, 4]: relatively mild elevation
plasma total Hcy (tHcy) [2, 4]: relatively mild elevation
plasma cysteine levels ([2]; daily PPG IP, first and second days): concomitant decrease
plasma cystathionine accumulation ([2]; daily PPG IP, second day): maximal accumulation persisted
